Laboratory results published in patent US20230211052A1, “COMPOUNDED ACTIVE PHARMACEUTICAL AGENTS IN THERMOPLASTIC POLYMER COMPOSITIONS AND METHODS OF MANUFACTURE” (priority 2021, published 2023).
Counter-ions that a name gives are not always drawn.

Experiment: Thermal stability assessment, oven then HPLC for degradants
Format: physicochemical
Settings: oven at 210° C. for 10 mins, compared with unheated sample
Protocol: The antimicrobial agents were placed into an oven set at 210° C. for 10 mins (to mimic condition in which the antimicrobial agent would be exposed to heat during the compounding and extrusion processes). Another set of the same antimicrobial agents was not exposed to any heat. The unheated and heated samples were then examined through HPLC method for presence of degradants (extra peaks). Results of CHA and CHD are in FIGS. 8, 9, 10, and 11. […] Similar to CHD, ALX-D was also found stable at 210° C. for 10 mins and was found suitable for including in the device through compounding process.

Row | thermal stability, presence of degradants (extra peaks) by HPLC | Compound
1 | absence of any extra peaks | [H]/N=C(\N/C(=N/[H])NCCCCCCNC(=N)NC(=N)Nc1ccc(Cl)cc1)Nc1ccc(Cl)cc1 [CHD, Chlorhexidine Dihydrochloride]
2 | stable | CCCCC(CC)CNC(=N)NC(=N)NCCCCCCNC(=N)NC(=N)NCC(CC)CCCC (stereo not drawn) [ALX-D, Alexidine Dihydrochloride]
3 | several extra peaks from degradants | CC(=O)O.CC(=O)O.NC(=N\CCCCCC/N=C(N)/N=C(\N)Nc1ccc(Cl)cc1)/N=C(\N)Nc1ccc(Cl)cc1 [CHA, Chlorhexidine Diacetate]
